Source: US20240016876A1, “COMPOSITION FOR HANGOVER RELIEF COMPRISING NONI FRUIT EXTRACT OR FRACTION THEREOF AND USE THEREOF” (Cosmax NBT, Inc., priority 2020, published 2024)

What follows are molecules tested on alcohol dehydrogenase (ADH) (assay: ADH activity enhancing efficacy (in vitro, Bergmeyer method)). Conditions: samples treated at 10 μM; control group (CTL) not treated = 100%; FIGS. 1 and 2.
Type: biochemical
Procedure: The ADH activity was measured by referring to [Bergmeyer, H. U. 1974. Methods of enzymatic analysis. Academic Press, New York. pp. 28], and measurements were made according to the method presented herein. All samples were treated at 10 μM, and the ADH activity of each sample was expressed as relative activity (%) with respect to the control group, based on 100% of the activity of the control group (CTL) which was not treated with the sample.
For `O=C(/C=C/c1ccc(O)c(O)c1)O[C@@H]1C[C@](O)(C(=O)O)C[C@@H](O)[C@H]1O` [chlorogenic acid], the “ADH activity compared to the control group” value was “did not show an increase”.
For `CC(=O)OCC1=C[C@H](O)[C@@H]2C(C(=O)O)=CO[C@@H](O[C@@H]3O[C@H](CO)[C@@H](O)[C@H](O)[C@H]3O)[C@H]12` [asperulosidic acid], the “ADH activity compared to the control group” value was “did not show an increase”.
In the case of `COc1cc2ccc(=O)oc2cc1O` [scopoletin], the “ADH activity compared to the control group” value is reported as “did not show an increase”.
For `O=C(O)c1cc(O)c(O)c(O)c1` [gallic acid], the “ADH activity compared to the control group” value was “did not show an increase”.
`COc1ccc(C(=O)O)cc1` [p-anisic acid] was tested, and the “ADH activity compared to the control group” value was “did not show an increase”.
For `O=C(O)C1=CO[C@@H](O[C@@H]2O[C@H](CO)[C@@H](O)[C@H](O)[C@H]2O)[C@@H]2C(CO)=C[C@H](O)[C@H]12` [deacetylasperulosidic acid], the “ADH activity compared to the control group” value was “did not show an increase”.
With `O=C(O)/C=C/c1ccc(O)c(O)c1` [caffeic acid] the “ADH activity compared to the control group” value was “did not show an increase”.
For `O=C(O)c1ccc(O)cc1` [4-hydroxybenzoic acid], the “ADH activity compared to the control group” value was “did not show an increase”.
`CC(=O)OCC1=C[C@@H]2OC(=O)C3=CO[C@@H](O[C@@H]4O[C@H](CO)[C@@H](O)[C@H](O)[C@H]4O)[C@H]1[C@@H]32` [asperuloside] was tested, and the “ADH activity compared to the control group” value was “did not show an increase”.
